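How tested: cells in 96-well plates exposed to compound for 48 hours at five concentrations. GI50: concentration for 50% inhibition of growth. At the TGI there is no net growth.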

Among the test systems are SK-OV-3 ovarian; A549 NSCLC; UACC-62 melanoma; BT-549 breast; CCRF-CEM leukemia; SN12C renal; UO-31 renal; NCI-H460 lung; HOP-92 NSCLC; HCT-116 colon; NCI-H522 lung; SNB-19 CNS; HCT-15 colon; MDA-N.
Common to all, as to assay: DTP human tumour cell line panel, 48 h

The TGI is the concentration at which net growth stops. The low end stands for greater sensitivity of the cells, the high end for lower sensitivity of the cells. As usually defined, the GI50 is the concentration at which growth is held to half of that of the control. As to `COc1cc2c(cc1OCCCCN1CCN(CCCCOc3cc4c(cc3OC)C(=O)N3CCC[C@H]3C=N4)CC1)N=C[C@@H]1CCCN1C2=O`, the TGI is more than 100 µM in the assay on SK-OV-3 ovarian; more than 100 µM in the assay with A549 NSCLC; 0.0347 µM in the assay on UACC-62 melanoma; 0.843 µM with BT-549 breast; 41.6 µM in the assay on CCRF-CEM leukemia; 1.1 µM with SN12C renal. Further, the TGI was more than 100 µM in the assay on UO-31 renal; more than 32 µM with NCI-H460 lung; 0.255 µM in the assay with HOP-92 NSCLC; 22.5 µM in the assay on HCT-116 colon; 1.49 µM with NCI-H522 lung. The GI50 with CCRF-CEM leukemia was less than 0.01 µM.

As for `O=C1c2ccccc2C(=O)c2c(O)c(NCCNCCO)cc(O)c21`, the TGI is 11.8 µM in the assay with SNB-19 CNS; 13.5 µM in the assay on A549 NSCLC; 23.8 µM in the assay with UACC-62 melanoma; 13.2 µM in the assay with CCRF-CEM leukemia; 14.9 µM in the assay on SN12C renal; 11.7 µM in the assay with UO-31 renal. For the same compound, the TGI in the assay on HCT-15 colon was 14.1 µM; with NCI-H460 lung, 12.3 µM; in the assay with HOP-92 NSCLC, 24.6 µM; in the assay on HCT-116 colon, 11.9 µM.

Regarding `Cc1ccc(F)c2c(=O)cc(-c3ccccc3)[nH]c12`, the TGI in the assay on SK-OV-3 ovarian, in the assay with A549 NSCLC, in the assay with UACC-62 melanoma, in the assay with CCRF-CEM leukemia, in the assay with SN12C renal and in the assay on UO-31 renal was more than 100 µM throughout. The TGI in the assay with HCT-15 colon, with NCI-H460 lung, with HOP-92 NSCLC, in the assay on HCT-116 colon and in the assay with NCI-H522 lung was more than 100 µM each time.

`Cc1nc2nn(C)cc2c(=O)n1/N=C/c1ccccc1`: the TGI in the assay on SNB-19 CNS, in the assay with SK-OV-3 ovarian, with A549 NSCLC, in the assay with UACC-62 melanoma, in the assay with CCRF-CEM leukemia and in the assay with SN12C renal was more than 100 µM each time. Besides, the TGI with UO-31 renal, with HCT-15 colon, in the assay with NCI-H460 lung, with HCT-116 colon and with NCI-H522 lung was more than 100 µM each time.

With `CCCN(CCC)C(=O)c1c(Cl)c2cccnc2n2c(C)cnc12`, the total growth inhibition concentration (TGI) with SNB-19 CNS, in the assay with SK-OV-3 ovarian, in the assay on A549 NSCLC, with UACC-62 melanoma, in the assay with CCRF-CEM leukemia and with SN12C renal was more than 100 µM each time. The total growth inhibition concentration (TGI) in the assay on UO-31 renal, with NCI-H460 lung, in the assay on HOP-92 NSCLC, with HCT-116 colon, with NCI-H522 lung and in the assay on MDA-N was more than 100 µM in each case.

As for `CC(=O)NC1C(OCc2ccccc2)OC(CO)C(O)C1OCC(=O)N1CCCC1C(=O)NC(CCC(=O)NCCCCCNc1c2ccccc2nc2cccc([N+](=O)[O-])c12)C(N)=O` (stereo not drawn), the concentration for total growth inhibition (TGI) with SNB-19 CNS came out at 0.493 µM; in the assay with SK-OV-3 ovarian, 0.538 µM; in the assay on A549 NSCLC it was 0.137 µM; in the assay with UACC-62 melanoma, 0.0751 µM; in the assay on CCRF-CEM leukemia, 1.08 µM; in the assay with SN12C renal, 0.0753 µM. Further, the concentration for total growth inhibition (TGI) in the assay on UO-31 renal came to 0.115 µM; with HCT-15 colon it was 0.0906 µM; in the assay with NCI-H460 lung, 0.0171 µM; with HOP-92 NSCLC it was 0.101 µM; in the assay with HCT-116 colon, 0.137 µM; in the assay on NCI-H522 lung it was 0.25 µM. In addition, the TGI in the assay on MDA-N came to 0.0499 µM.

On to `COC1C(OC(N)=O)C(O)C(Oc2ccc3c(O)c(NC(=O)c4ccc(O)c(CC=C(C)C)c4)c(=O)oc3c2C)OC1(C)C` (stereo not drawn), for which the total growth inhibition concentration (TGI) with SNB-19 CNS, in the assay with SK-OV-3 ovarian, with A549 NSCLC, with UACC-62 melanoma, in the assay with BT-549 breast and in the assay on CCRF-CEM leukemia was more than 100 µM throughout. Moreover, the total growth inhibition concentration (TGI) in the assay on SN12C renal, with UO-31 renal, in the assay with HCT-15 colon, in the assay with NCI-H460 lung, in the assay with HCT-116 colon and with MDA-N was more than 100 µM throughout.

As to `COc1nc(OC)nc(Sc2ccc(Sc3ccc(Sc4nc(OC)nc(OC)n4)cc3)cc2)n1`, the TGI with SNB-19 CNS, with SK-OV-3 ovarian, in the assay on A549 NSCLC, in the assay with UACC-62 melanoma, in the assay on CCRF-CEM leukemia and with SN12C renal was more than 100 µM throughout. For the same compound, the concentration for total growth inhibition (TGI) in the assay on UO-31 renal, with HCT-15 colon, in the assay on NCI-H460 lung, in the assay with HOP-92 NSCLC, in the assay with HCT-116 colon and in the assay on NCI-H522 lung was more than 100 µM each time.

In the case of `C=CCC1C2CCC(O[Si](C(C)C)(C(C)C)C(C)C)(C(C(=O)OC)C2)C1O` (stereo not drawn), the TGI in the assay on SNB-19 CNS, in the assay on SK-OV-3 ovarian, in the assay on A549 NSCLC, with UACC-62 melanoma, in the assay on CCRF-CEM leukemia and with SN12C renal was more than 100 µM throughout. Also, the concentration for total growth inhibition (TGI) is more than 100 µM in the assay on UO-31 renal; more than 100 µM with HCT-15 colon; more than 100 µM with NCI-H460 lung; more than 100 µM in the assay on HOP-92 NSCLC; 58.2 µM in the assay with HCT-116 colon; more than 100 µM in the assay on MDA-N.

Take `CCOC(=O)c1c(NC(=O)c2ccc(Br)cc2)sc2c1CCCC2`: the TGI with SNB-19 CNS, in the assay on A549 NSCLC, in the assay on UACC-62 melanoma, with BT-549 breast, in the assay on CCRF-CEM leukemia and with SN12C renal was more than 100 µM throughout. The TGI with UO-31 renal was more than 100 µM; in the assay on NCI-H460 lung, 20 µM; with HCT-116 colon, more than 100 µM; in the assay with MDA-N it was more than 100 µM.

Consider `CSc1nc(-c2ccc(Cl)cc2)c(C#N)c(=O)[nH]1`, for which the TGI with SNB-19 CNS, in the assay on SK-OV-3 ovarian, in the assay on A549 NSCLC, in the assay with UACC-62 melanoma, in the assay on BT-549 breast and in the assay on CCRF-CEM leukemia was more than 100 µM throughout. Moreover, the TGI in the assay on SN12C renal is more than 100 µM; with UO-31 renal, more than 100 µM; in the assay with HCT-15 colon, more than 100 µM; in the assay with NCI-H460 lung, more than 100 µM; with HOP-92 NSCLC it was 97.7 µM; with HCT-116 colon it was more than 100 µM. In the assay with NCI-H522 lung, this compound had a TGI of more than 100 µM.

(Values after PubChem BioAssay (NCI).)
